Measurements as given in ChEMBL document CHEMBL1201862, “PubChem BioAssay data set” (2004).
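Results reflect a 48-hour exposure of cells in 96-well plates to compound at five concentrations. At the GI50, growth is halved.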 Activity calls are given as the source filed them. Rule as the data show it: active = GI50 up to about 1.1 µM and inactive = higher.

Key:
Experiment in all cases: growth of human tumour cells (NCI), 48 h
[1] = test system: HOP-92
[2] = test system: EKVX
[3] = test system: DMS-114
[4] = test system: NCI-H226
[5] = test system: LXFL 529
[6] = test system: HCT-116
[7] = test system: CAKI-1
[8] = test system: OVCAR-4
[9] = test system: COLO 205
[10] = test system: 786-0
[11] = test system: SNB-19
[12] = test system: SF-295
[13] = test system: UO-31
[14] = test system: RPMI-8226
[15] = test system: OVCAR-8
[16] = test system: SF-268
[17] = test system: DMS-273
[18] = test system: HT-29
[19] = test system: SK-OV-3
[20] = test system: LOX IMVI
[21] = test system: KM12
[22] = test system: HOP-18
[23] = test system: SF-539
[24] = test system: NCI-H23
[25] = test system: U-251
[26] = test system: XF498
[27] = test system: HCT-15
[28] = test system: SK-MEL-28
[29] = test system: MOLT-4
[30] = test system: SW-620
[31] = test system: SK-MEL-5
[32] = test system: SK-MEL-2
[33] = test system: A549
[34] = test system: RXF 393
[35] = test system: A498
[36] = test system: K562
[37] = test system: HOP-62
[38] = test system: M14
[39] = test system: M19-MEL
[40] = test system: SNB-78
[41] = test system: KM-20L2
[42] = test system: SN12C
[43] = test system: UACC-257
[44] = test system: OVCAR-5
[45] = test system: HCC 2998
[46] = test system: UACC-62
[47] = test system: CCRF-CEM
[48] = test system: NCI-H460
[49] = test system: IGROV-1
[50] = test system: OVCAR-3
[51] = test system: ACHN
[52] = test system: HL-60
[53] = test system: TK-10
[54] = test system: DLD-1
[55] = test system: Malme-3M
[56] = test system: SNB-75
[57] = test system: NCI-H522
[58] = test system: NCI/ADR-RES
[59] = test system: MCF7

With O=c1c2cc(O)ccc2n2nnc3ccc(NCCNCCO)c1c32 the GI50 [1] was 3.49 µM (inactive), the GI50 [2] was 26.2 µM (inactive) and the GI50 [3] was 2.28 µM (inactive). For the same molecule, the GI50 [4] was 2.6 µM (inactive), the GI50 [5] was 3.2 µM (inactive) and the GI50 [6] was 4.62 µM (inactive). For the same molecule, the GI50 [7] was 5.68 µM (inactive), the GI50 [8] was 5.09 µM (inactive) and the GI50 [9] was 5.33 µM (inactive). For the same molecule, the GI50 [10] was 4.86 µM (inactive), the GI50 [11] was 4.09 µM (inactive) and the GI50 [12] was 15.2 µM (inactive). For the same molecule, the GI50 [13] was 26.9 µM (inactive), the GI50 [14] was 17.1 µM (inactive) and the GI50 [15] was 3.53 µM (inactive). For the same molecule, the GI50 [16] was 1.39 µM (inactive), the GI50 [17] was 9.18 µM (inactive) and the GI50 [18] was 8.77 µM (inactive). For the same molecule, the GI50 [19] was 5.08 µM (inactive), the GI50 [20] was 3.23 µM (inactive) and the GI50 [21] was 20.2 µM (inactive). For the same molecule, the GI50 [22] was 26.9 µM (inactive), the GI50 [23] was 4.56 µM (inactive) and the GI50 [24] was 11.7 µM (inactive). The GI50 [25] was 1.27 µM (inactive), the GI50 [26] was 1.71 µM (inactive) and the GI50 [27] was 77.8 µM.

In the case of CC(=O)OC1CC2C(C)(C)C(=O)C=C[C@]2(C)C2CCC3(C)C(=CC(=O)C3c3ccoc3)[C@]12C (stereo partly drawn), the GI50 [28] is reported as 15.9 µM (inactive), the GI50 [29] is reported as 13.2 µM (inactive) and the GI50 [1] is reported as 19.9 µM (inactive). For the same molecule, the GI50 [30] was 10.5 µM (inactive), the GI50 [31] was 13.1 µM (inactive) and the GI50 [32] was 17.9 µM (inactive). For the same molecule, the GI50 [33] was 15.1 µM (inactive), the GI50 [2] was 15.7 µM (inactive) and the GI50 [3] was 10 µM (inactive). The GI50 [4] was 17.8 µM (inactive), the GI50 [34] was 2.3 µM (inactive) and the GI50 [5] was 24 µM (inactive). For the same molecule, the GI50 [35] was 16.9 µM (inactive), the GI50 [6] was 11.6 µM (inactive) and the GI50 [36] was 9.55 µM (inactive). The GI50 [7] was 24.7 µM (inactive), the GI50 [8] was 18.4 µM (inactive) and the GI50 [37] was 16.3 µM (inactive). The GI50 [38] was 21 µM (inactive), the GI50 [39] was 16 µM (inactive) and the GI50 [9] was 16.9 µM (inactive). The GI50 [10] was 15.5 µM (inactive), the GI50 [11] was 15.6 µM (inactive) and the GI50 [12] was 15.2 µM (inactive). The GI50 [40] was 31.4 µM (inactive), the GI50 [41] was 14.7 µM (inactive) and the GI50 [13] was 18.9 µM (inactive). The GI50 [14] was 14.9 µM (inactive), the GI50 [42] was 16.7 µM (inactive) and the GI50 [15] was 16.7 µM (inactive). The GI50 [43] was 17.4 µM (inactive), the GI50 [44] was 22.4 µM (inactive) and the GI50 [45] was 12.3 µM (inactive). For the same molecule, the GI50 [16] was 15.6 µM (inactive), the GI50 [46] was 13 µM (inactive) and the GI50 [47] was 8.47 µM (inactive). For the same molecule, the GI50 [48] was 11.4 µM (inactive), the GI50 [18] was 13.5 µM (inactive) and the GI50 [49] was 16.6 µM (inactive). For the same molecule, the GI50 [19] was 20.7 µM (inactive), the GI50 [20] was 14.8 µM (inactive) and the GI50 [21] was 11.9 µM (inactive). The GI50 [22] was 18.4 µM (inactive), the GI50 [50] was 11.5 µM (inactive) and the GI50 [51] was 16.2 µM (inactive). For the same molecule, the GI50 [23] was 16.9 µM (inactive), the GI50 [24] was 12.7 µM (inactive) and the GI50 [52] was 14.3 µM (inactive). The GI50 [53] was 15.7 µM (inactive), the GI50 [54] was 12.4 µM (inactive) and the GI50 [55] was 17.5 µM (inactive). The GI50 [56] was 12.5 µM (inactive), the GI50 [26] was 25.8 µM (inactive) and the GI50 [27] was 11.7 µM.

With CCCCCCCCCCCCCCCCCCOCC(O)CO (stereo not drawn) [BATILOL] the GI50 [28] was > 25 µM (inactive), the GI50 [29] was 17.2 µM (inactive) and the GI50 [1] was 11.7 µM (inactive). The GI50 [30] was > 17 µM (inactive), the GI50 [57] was 9.18 µM (inactive) and the GI50 [31] was 2.07 µM (inactive). For the same molecule, the GI50 [32] was > 24.2 µM (inactive), the GI50 [33] was 4.32 µM (inactive) and the GI50 [58] was > 25 µM (inactive). The GI50 [2] was > 14.1 µM (inactive), the GI50 [3] was 18 µM (inactive) and the GI50 [4] was > 21.6 µM (inactive). For the same molecule, the GI50 [34] was 16.7 µM (inactive), the GI50 [35] was 3.61 µM (inactive) and the GI50 [6] was > 25 µM (inactive). For the same molecule, the GI50 [36] was > 22.4 µM (inactive), the GI50 [7] was 3.57 µM (inactive) and the GI50 [8] was 21.9 µM (inactive). The GI50 [37] was 14 µM (inactive), the GI50 [39] was 12 µM (inactive) and the GI50 [9] was > 25 µM (inactive). The GI50 [11] was > 25 µM (inactive), the GI50 [12] was 18.6 µM (inactive) and the GI50 [40] was > 25 µM (inactive). The GI50 [41] was 19.1 µM (inactive), the GI50 [13] was 12.5 µM (inactive) and the GI50 [14] was 4.9 µM (inactive). For the same molecule, the GI50 [42] was > 25 µM (inactive), the GI50 [15] was > 25 µM (inactive) and the GI50 [43] was > 23.9 µM (inactive). The GI50 [44] was > 25 µM (inactive), the GI50 [45] was 12.4 µM (inactive) and the GI50 [16] was > 25 µM (inactive). For the same molecule, the GI50 [59] was > 25 µM (inactive), the GI50 [46] was 21.7 µM (inactive) and the GI50 [47] was 10.7 µM (inactive). For the same molecule, the GI50 [48] was > 20.2 µM (inactive), the GI50 [17] was > 5.93 µM (inactive) and the GI50 [18] was 14.5 µM (inactive). The GI50 [49] was 13.6 µM (inactive), the GI50 [19] was > 23.5 µM (inactive) and the GI50 [20] was > 21.9 µM (inactive). The GI50 [21] was 21.6 µM (inactive), the GI50 [22] was 0.61 µM (active) and the GI50 [50] was > 23.9 µM (inactive). The GI50 [23] was > 25 µM (inactive), the GI50 [24] was > 25 µM (inactive) and the GI50 [52] was 10.5 µM (inactive). The GI50 [54] was > 25 µM (inactive), the GI50 [55] was > 11.1 µM (inactive) and the GI50 [56] was 9.48 µM (inactive). The GI50 [25] was > 25 µM (inactive), the GI50 [26] was 15.5 µM (inactive) and the GI50 [27] was greater than 25 µM.

In the case of O=C1/C(=C\c2ccccc2)c2ccccc2N1/N=C\c1ccccc1, the GI50 [28] is reported as > 100 µM (inactive), the GI50 [29] is reported as 22.5 µM (inactive) and the GI50 [1] is reported as > 100 µM (inactive). The GI50 [30] was 59 µM (inactive), the GI50 [31] was 48.4 µM (inactive) and the GI50 [32] was > 100 µM (inactive). The GI50 [33] was 76.2 µM (inactive), the GI50 [2] was 23.2 µM (inactive) and the GI50 [3] was > 100 µM (inactive). For the same molecule, the GI50 [4] was > 100 µM (inactive), the GI50 [35] was > 100 µM (inactive) and the GI50 [6] was 77.4 µM (inactive). The GI50 [36] was 42.7 µM (inactive), the GI50 [7] was > 100 µM (inactive) and the GI50 [8] was > 100 µM (inactive). The GI50 [37] was > 100 µM (inactive), the GI50 [38] was > 100 µM (inactive) and the GI50 [39] was 97.7 µM (inactive). The GI50 [9] was > 100 µM (inactive), the GI50 [10] was 81.5 µM (inactive) and the GI50 [11] was > 100 µM (inactive). For the same molecule, the GI50 [12] was > 100 µM (inactive), the GI50 [40] was > 100 µM (inactive) and the GI50 [41] was > 100 µM (inactive). The GI50 [13] was > 100 µM (inactive), the GI50 [14] was 57.3 µM (inactive) and the GI50 [42] was > 100 µM (inactive). For the same molecule, the GI50 [15] was > 100 µM (inactive), the GI50 [43] was > 100 µM (inactive) and the GI50 [44] was > 100 µM (inactive). For the same molecule, the GI50 [45] was 50.4 µM (inactive), the GI50 [16] was > 100 µM (inactive) and the GI50 [46] was 90.4 µM (inactive). For the same molecule, the GI50 [47] was 49.2 µM (inactive), the GI50 [48] was > 100 µM (inactive) and the GI50 [17] was > 100 µM (inactive). The GI50 [18] was 25.1 µM (inactive), the GI50 [49] was > 100 µM (inactive) and the GI50 [19] was > 100 µM (inactive). For the same molecule, the GI50 [20] was > 100 µM (inactive), the GI50 [21] was 49.1 µM (inactive) and the GI50 [22] was > 100 µM (inactive). For the same molecule, the GI50 [50] was 91.8 µM (inactive), the GI50 [51] was > 100 µM (inactive) and the GI50 [23] was > 100 µM (inactive). For the same molecule, the GI50 [24] was > 100 µM (inactive), the GI50 [53] was > 100 µM (inactive) and the GI50 [54] was 59 µM (inactive). The GI50 [55] was > 100 µM (inactive), the GI50 [56] was 29 µM (inactive) and the GI50 [25] was > 100 µM (inactive). For the same molecule, the GI50 [26] was > 100 µM (inactive) and the GI50 [27] was 43.9 µM.
